Experimental data as given in patent US20180185520A1, “COLLAGEN IMAGING COMPOSTIONS” (Collagen Medical, LLC, priority 2015, published 2018).
Bridge positions count the residues as written; N and C are the ends. Square brackets hold non-standard residues; d marks the D form. Primed or numbered codes have the meaning given here. Ends that are not written are not given here. Peptide text beside a SMILES is read from it. * marks the point of attachment. X1 = O=C(O)CN1CCN(CC(=O)O)CCN([C@H](CCC(=O)*)C(=O)O)CCN(CC(=O)O)CC1; GdDOTAGA″ = gadolinium DOTAGA chelate, amide-bonded; Bip = N[C@@H](Cc1ccc(-c2ccccc2)cc1)C(=O)O

Legend:
[1] = molecular target: T1, Canine collagen (Native canine Collagen Type I and III protein) (Canis lupus familiaris, UniProt O46392+Q9XSJ7); experiment: Collagen binding assay, dried canine collagen in microtiter plate; details: 37° C., pH 7.4; read-out: Collagen Binding Dog (Kd)
T1 construct: purchased YO protein AB 739
Experimental: Canine collagen (Native canine Collagen Type I and III protein, YO protein AB, cat#739) is dissolved in 0.5 M acetic acid at 3.3 mg/ml by vortexing and shaking overnight at 4° C. The solution is then dialyzed against 10 mM Phosphate (NaH2PO4), pH 4.2 at 4° C. with three changes of the dialysis buffer.
Ice-cold 1×PBS pH 10.8 is added to the collagen solution for a final collagen concentration of 10 μM, pH 7.4. Collagen solutions are gelled and dried down in the wells of a 96 well microtiter plate (Corning Polystyrene Flat Bottom, cat#3641). 70 μl of 10 μM collagen is aliquoted into each well in every other lane in the plate (48 wells) and the plate is incubated at 37° C. for 18 hours to form a gel and evaporate to dryness. […] The final well content of gelled collagen is measured by determination of hydroxyproline and is around 180 μg/ml.
(§1) a serial dilution of 0.2 μM-30 μM of the peptide chelate is prepared in PBS, pH 7.4 ([…], of solution for each concentration). […] The concentration of free, unbound compound in the sample supernatants and the concentration of compound in the reserved (total) sample are determined by ICP-MS (Agilent 7500, gadolinium concentration). The concentration of compound bound to collagen is determined as [bound]=[total]−[unbound].
(§2) The binding of compounds to human, rat and dog collagen (5 μM) was measured over the concentration range 0.2-5 μM of Comp ID Nos.: 1-4. […]

human type I collagen = molecular target: T2, human type I collagen (Homo sapiens, UniProt P02452+P08123); experiment: Collagen binding assay, dried human collagen in microtiter plate; details: 37° C., pH 7.4
T2 construct: purchased Advanced Biomatrix 5007-A
Experimental: 10 ml of a solution of 3 mg/ml of human type I collagen (VitroCol solution, Advanced Biomatrix, cat#5007-A) is dialyzed against 10 mM Phosphate (NaH2PO4), pH 4.2 at 4° C. with three changes of the dialysis buffer. The protein concentration is determined by liquid chromatography determination of hydroxyproline (P. Hutson, J. Chromatogr. B, 791 (2003) 427-430).
Ice-cold 1×PBS pH 10.8 is added to the collagen solution for a final collagen concentration of 10 μM, pH 7.4. Collagen solutions are gelled and dried down in the wells of a 96 well microtiter plate (Corning Polystyrene Flat Bottom, cat#3641). […] The final well content of gelled collagen is measured by determination of hydroxyproline and is around 180 μg/ml.
as §1, §2

[2] = molecular target: rat collagen (acid soluble, type I, rat tail, Millipore Inc, cat#08-115) (rat) (UniProt P02454); experiment: dried collagen film in microtiter plate; unbound compound by ICP-MS (Gd); fit to 1 binding site

T1 sequence (Q9XSJ7 158-1214 limits assumed): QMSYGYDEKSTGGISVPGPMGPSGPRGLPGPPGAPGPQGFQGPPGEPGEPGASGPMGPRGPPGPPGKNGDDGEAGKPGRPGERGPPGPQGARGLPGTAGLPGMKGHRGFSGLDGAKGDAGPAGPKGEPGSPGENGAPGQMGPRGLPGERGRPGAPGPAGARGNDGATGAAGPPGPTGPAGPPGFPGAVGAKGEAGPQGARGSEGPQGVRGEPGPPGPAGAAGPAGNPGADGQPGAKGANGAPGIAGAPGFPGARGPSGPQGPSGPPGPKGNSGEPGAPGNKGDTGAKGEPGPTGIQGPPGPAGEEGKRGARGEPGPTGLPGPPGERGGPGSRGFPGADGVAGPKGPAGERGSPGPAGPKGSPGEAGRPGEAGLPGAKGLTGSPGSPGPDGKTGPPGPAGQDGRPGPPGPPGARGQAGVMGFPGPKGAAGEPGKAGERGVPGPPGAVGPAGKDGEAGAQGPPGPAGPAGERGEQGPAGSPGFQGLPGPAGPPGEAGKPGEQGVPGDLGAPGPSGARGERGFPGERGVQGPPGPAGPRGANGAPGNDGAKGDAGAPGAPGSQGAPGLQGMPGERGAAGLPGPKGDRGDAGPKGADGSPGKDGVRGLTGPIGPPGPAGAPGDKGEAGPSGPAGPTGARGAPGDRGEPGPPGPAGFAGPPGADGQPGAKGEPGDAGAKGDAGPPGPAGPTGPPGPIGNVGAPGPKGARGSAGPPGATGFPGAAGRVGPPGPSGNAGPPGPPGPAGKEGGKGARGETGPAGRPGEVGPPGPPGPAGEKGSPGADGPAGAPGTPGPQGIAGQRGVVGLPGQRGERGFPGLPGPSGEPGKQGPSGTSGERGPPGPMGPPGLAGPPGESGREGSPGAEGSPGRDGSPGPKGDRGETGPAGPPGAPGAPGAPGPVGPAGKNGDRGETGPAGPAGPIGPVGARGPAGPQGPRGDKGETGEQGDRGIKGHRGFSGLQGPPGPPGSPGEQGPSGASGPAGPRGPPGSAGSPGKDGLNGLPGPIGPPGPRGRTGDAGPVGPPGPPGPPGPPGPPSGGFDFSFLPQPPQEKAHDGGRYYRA
T1 sequence (O46392 80-1119 limits assumed): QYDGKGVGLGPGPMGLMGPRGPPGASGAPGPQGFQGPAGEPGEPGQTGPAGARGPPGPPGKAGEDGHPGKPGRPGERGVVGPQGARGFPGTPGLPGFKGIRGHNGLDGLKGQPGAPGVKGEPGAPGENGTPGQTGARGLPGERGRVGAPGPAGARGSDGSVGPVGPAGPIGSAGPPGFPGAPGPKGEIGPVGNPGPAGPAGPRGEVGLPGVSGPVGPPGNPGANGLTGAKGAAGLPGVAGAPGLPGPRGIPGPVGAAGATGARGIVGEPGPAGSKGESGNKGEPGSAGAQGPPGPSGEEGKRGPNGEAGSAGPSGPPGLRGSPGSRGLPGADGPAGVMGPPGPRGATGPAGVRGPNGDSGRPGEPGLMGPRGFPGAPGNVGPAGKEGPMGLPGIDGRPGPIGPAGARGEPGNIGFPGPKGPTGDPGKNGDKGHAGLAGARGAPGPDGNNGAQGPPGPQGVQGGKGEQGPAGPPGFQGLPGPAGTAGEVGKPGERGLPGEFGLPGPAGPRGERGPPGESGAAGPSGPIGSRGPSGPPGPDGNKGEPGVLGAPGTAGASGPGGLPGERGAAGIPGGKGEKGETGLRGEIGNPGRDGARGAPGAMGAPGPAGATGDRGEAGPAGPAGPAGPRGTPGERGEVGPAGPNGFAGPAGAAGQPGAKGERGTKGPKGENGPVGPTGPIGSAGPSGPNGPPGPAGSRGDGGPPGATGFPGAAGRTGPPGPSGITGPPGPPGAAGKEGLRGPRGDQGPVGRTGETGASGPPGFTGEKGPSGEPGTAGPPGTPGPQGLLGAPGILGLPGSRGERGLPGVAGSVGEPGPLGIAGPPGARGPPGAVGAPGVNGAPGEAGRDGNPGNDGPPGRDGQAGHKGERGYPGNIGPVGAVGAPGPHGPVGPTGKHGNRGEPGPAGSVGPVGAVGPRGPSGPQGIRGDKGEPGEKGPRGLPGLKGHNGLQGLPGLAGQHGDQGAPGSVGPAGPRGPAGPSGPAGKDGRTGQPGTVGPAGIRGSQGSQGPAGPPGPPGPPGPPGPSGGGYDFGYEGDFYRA
T2 sequence (P02452 162-1218 limits assumed): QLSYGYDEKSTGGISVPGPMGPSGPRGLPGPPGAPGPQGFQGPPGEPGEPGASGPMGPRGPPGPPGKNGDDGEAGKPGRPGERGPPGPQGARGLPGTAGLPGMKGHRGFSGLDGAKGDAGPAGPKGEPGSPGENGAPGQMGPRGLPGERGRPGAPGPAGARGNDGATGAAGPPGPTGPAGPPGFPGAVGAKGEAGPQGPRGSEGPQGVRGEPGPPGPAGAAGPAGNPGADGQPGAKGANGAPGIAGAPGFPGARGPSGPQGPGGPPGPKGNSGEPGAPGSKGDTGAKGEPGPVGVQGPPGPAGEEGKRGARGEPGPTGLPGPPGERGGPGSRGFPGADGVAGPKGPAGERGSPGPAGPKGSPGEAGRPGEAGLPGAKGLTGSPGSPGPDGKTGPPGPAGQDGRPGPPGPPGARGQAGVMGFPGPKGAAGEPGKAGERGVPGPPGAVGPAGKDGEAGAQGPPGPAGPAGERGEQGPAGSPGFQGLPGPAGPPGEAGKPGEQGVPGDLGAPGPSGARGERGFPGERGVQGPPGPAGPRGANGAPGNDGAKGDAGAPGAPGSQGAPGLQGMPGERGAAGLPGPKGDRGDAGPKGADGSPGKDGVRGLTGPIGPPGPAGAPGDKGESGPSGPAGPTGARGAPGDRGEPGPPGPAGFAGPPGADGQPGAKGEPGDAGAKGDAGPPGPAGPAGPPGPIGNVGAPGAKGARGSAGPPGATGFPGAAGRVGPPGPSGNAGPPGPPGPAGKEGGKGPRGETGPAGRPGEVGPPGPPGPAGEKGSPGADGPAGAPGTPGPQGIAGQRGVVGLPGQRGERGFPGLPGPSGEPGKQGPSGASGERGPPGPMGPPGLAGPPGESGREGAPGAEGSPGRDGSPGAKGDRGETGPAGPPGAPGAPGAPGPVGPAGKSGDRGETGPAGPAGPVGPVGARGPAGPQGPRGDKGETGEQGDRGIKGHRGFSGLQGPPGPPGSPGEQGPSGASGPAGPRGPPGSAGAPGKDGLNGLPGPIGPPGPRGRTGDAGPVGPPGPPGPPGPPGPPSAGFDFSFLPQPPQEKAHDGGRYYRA
T2 sequence (P08123 80-1119 limits assumed): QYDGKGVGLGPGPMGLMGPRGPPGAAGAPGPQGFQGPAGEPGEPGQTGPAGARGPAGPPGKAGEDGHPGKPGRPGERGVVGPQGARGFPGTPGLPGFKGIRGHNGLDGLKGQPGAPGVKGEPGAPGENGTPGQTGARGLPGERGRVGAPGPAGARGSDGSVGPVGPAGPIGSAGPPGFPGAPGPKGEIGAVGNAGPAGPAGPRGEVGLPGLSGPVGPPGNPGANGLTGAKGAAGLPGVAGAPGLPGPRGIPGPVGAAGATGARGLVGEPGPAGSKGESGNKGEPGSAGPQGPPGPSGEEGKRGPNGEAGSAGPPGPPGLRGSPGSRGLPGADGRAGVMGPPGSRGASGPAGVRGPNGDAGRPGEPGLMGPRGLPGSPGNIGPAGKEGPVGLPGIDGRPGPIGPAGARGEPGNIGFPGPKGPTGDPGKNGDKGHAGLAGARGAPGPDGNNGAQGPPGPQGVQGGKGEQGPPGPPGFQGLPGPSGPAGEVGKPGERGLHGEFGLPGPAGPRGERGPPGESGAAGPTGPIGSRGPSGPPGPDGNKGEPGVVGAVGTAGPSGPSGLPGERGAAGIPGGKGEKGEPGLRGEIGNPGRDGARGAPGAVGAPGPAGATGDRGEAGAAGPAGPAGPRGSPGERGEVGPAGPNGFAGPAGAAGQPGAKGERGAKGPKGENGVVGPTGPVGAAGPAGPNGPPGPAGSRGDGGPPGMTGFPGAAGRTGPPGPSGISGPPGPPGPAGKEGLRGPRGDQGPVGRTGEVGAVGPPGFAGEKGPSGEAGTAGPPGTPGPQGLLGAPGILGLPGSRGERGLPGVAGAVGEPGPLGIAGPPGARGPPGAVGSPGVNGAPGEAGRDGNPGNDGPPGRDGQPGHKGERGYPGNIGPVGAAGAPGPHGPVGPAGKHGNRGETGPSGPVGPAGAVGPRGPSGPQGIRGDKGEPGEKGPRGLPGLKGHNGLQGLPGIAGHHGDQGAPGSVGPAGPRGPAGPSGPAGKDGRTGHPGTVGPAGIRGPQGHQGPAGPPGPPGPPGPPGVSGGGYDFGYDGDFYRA

Kd [2] [µM]	Molecule	other results
	CC(C)[C@H](NC(=O)[C@@H]1CSSC[C@H](NC(=O)[C@H](Cc2c[nH]cn2)NC(=O)[C@H](Cc2c[nH]c3ccccc23)NC(=O)[C@H](CCCCNC(=O)CC[C@H](C(=O)O)N2CCN(CC(=O)O)CCN(CC(=O)O)CCN(CC(=O)O)CC2)NC(=O)CC[C@H](C(=O)O)N2CCN(CC(=O)O)CCN(CC(=O)O)CCN(CC(=O)O)CC2)C(=O)N[C@@H](Cc2ccc(O)cc2)C(=O)N[C@@H]([C@@H](C)O)C(=O)N[C@@H](CCCCNC(=O)CC[C@H](C(=O)O)N2CCN(CC(=O)O)CCN(CC(=O)O)CCN(CC(=O)O)CC2)C(=O)N[C@@H](Cc2ccccc2)C(=O)N2CCC[C@H]2C(=O)N[C@@H](Cc2c[nH]cn2)C(=O)N[C@@H](Cc2c[nH]cn2)C(=O)N[C@@H](Cc2ccc(O)cc2)C(=O)N1)C(=O)N[C@@H](Cc1ccc(O)cc1)C(=O)N[C@@H](Cc1ccc(-c2ccccc2)cc1)C(N)=O [Compound ID No. 4] (X1-K(X1)WHCYTK(X1)FPHHYCVY[Bip]-NH2; disulfide 4-13)	Kd [1]: 2 µM
	CC(C)C[C@H](NC(=O)[C@@H]1CSSC[C@H](NC(=O)[C@H](Cc2c[nH]cn2)NC(=O)[C@H](Cc2c[nH]c3ccccc23)NC(=O)[C@H](Cc2ccc(O)cc2)NC(=O)[C@H](CCCCNC(=O)CC[C@H](C(=O)O)N2CCN(CC(=O)O)CCN(CC(=O)O)CCN(CC(=O)O)CC2)NC(=O)CC[C@H](C(=O)O)N2CCN(CC(=O)O)CCN(CC(=O)O)CCN(CC(=O)O)CC2)C(=O)N[C@@H]([C@@H](C)O)C(=O)N[C@@H]([C@@H](C)O)C(=O)N[C@@H](CCCCNC(=O)CC[C@H](C(=O)O)N2CCN(CC(=O)O)CCN(CC(=O)O)CCN(CC(=O)O)CC2)C(=O)N[C@@H](Cc2ccccc2)C(=O)N2CCC[C@H]2C(=O)N[C@@H](Cc2c[nH]cn2)C(=O)N[C@@H](Cc2c[nH]cn2)C(=O)N[C@@H](Cc2ccc(O)cc2)C(=O)N1)C(=O)N[C@@H](Cc1ccc(O)cc1)C(=O)N[C@@H](Cc1ccc(-c2ccccc2)cc1)C(N)=O [Compound ID No. 3] (X1-K(X1)YWHCTTK(X1)FPHHYCLY[Bip]-NH2; disulfide 5-14)	Kd (human type I collagen): 29.8 µM
4.6	KWHCYTKFPHHYCVY[Bip]-NH2 (disulfide 4-13; also: GdDOTAGA on N-terminal nitrogen or Lys epsilon amines, sites not fixed) [Compound ID No. 4]	
20.6	{GdDOTAGA″}-K(GdDOTAGA″)WHCTTK(GdDOTAGA″)FPHHYCLY[Bip]-NH2 (disulfide 4-13) [Compound ID No. 2]	
